Measured values from patent US20040106802A1, “Novel compounds and therapeutic uses thereof” (TORRENT PHARMACEUTICALS LTD., priority 2002, published 2004).
Structures can show the parent of a compound that is named as a salt. Where two headings read alike, the source gives them in different places.

Target: T1, Porcine DPP-IV (Sus scrofa, UniProt P22411)
T1 construct: purchased Sigma-Aldrich Germany
Test: Assay of DPP-IV enzyme inhibitory activity (spectrophotometric, Gly-Pro-pNA cleavage)
Format: biochemical
Settings: Porcine DPP-IV, Gly-Pro-pNA substrate, 30° C., mean ± SD of three experiments except compound Nos. 133 & 139, read-out: IC50 (μM) Mean ± SD, inhibitory activity on DPP-IV enzyme activity
Protocol: Assay of DPP-IV Enzyme Inhibitory Activity.
The assay method is a modified method (as described by Welch et al, 1998) based on spectrophotometric determination of the product formed by penultimate proline cleaving activity of the enzyme.
Assay protocol involves incubation of the enzyme dipeptidyl peptidase IV with the test substance at 30° C. for 30 min followed by addition of this reaction mixture to the substrate Gly-Pro-pNA that was equilibrated at 30° C. for 2 min. The enzyme cleaves the substrate at penultimate proline and releases p-nitroanilide, the optical density of which is measured at 385 nm. The formation of p-nitroanilide will be reduced in the presence of inhibitor. […] The activity of molecule is expressed in terms of % inhibition. At least three different concentrations were tried out for each of the test substances. The percentage inhibitions for each of the concentrations were plotted and an IC50 of the test compound was worked out. The enzyme inhibitory activity of different test compounds were compared based on the IC50 values.
The percentage inhibition % I, is calculated using the formula:
% I=[(1−vi/v0)]*100 where vi and v0 are the Vmax values with and without the test substance, respectively.
Substrate solution: 0.5 mM in 45 mM phosphate buffer
Substrate used: Gly-Pro-p-nitroanilide (Source: Sigma-Aldrich Co. Germany)
3.288 mg substrate in 1 ml 45 mM phosphate buffer was prepared as stock solution. 0.25 ml of this stock solution was diluted to 5 ml to get 0.5 mM substrate solution (90 μl to be added in each well). The stock solution of the substrate was used within three days of preparation.
Enzyme solution: Porcine DPP-IV (Sigma-Aldrich Germany) was used throughout the study. 0.4 mU in 80 μl of Tris. HCl buffer was prepared. Fresh solutions were prepared everyday for the assays.
Various concentrations of inhibitor were used: 0.391 μM, 0.781 μM, and 3.125 μM. Solutions of inhibitor were prepared and used on the same day.
280 μl of enzyme solution (0.4-mU/80 μl in Tris HCl buffer) was added to the eppendorf containing 70 μl solution of inhibitor or vehicle and mixed. This reaction mixture was incubated for 30 min at 30° C. The 96 well plate containing substrate solution was thermally equilibrated in the spectrophotometer for 2 min at 30° C. Later 100 μl of the enzyme-inhibitor pre-incubation solution was added to respective wells in a 96 well plate. Each concentration of the inhibitor was tested in triplicates.
The rate of change in UV absorbance (in presence of various concentrations of the inhibitor) was measured at 385 nm, with respect to wells containing only 0.5 mM substrate in 45 mM phosphate buffer as blank at every 10 min for 2 hours after adding enzyme-inhibitor mixture to wells containing substrate solution.

T1 sequence (P22411 whole entry): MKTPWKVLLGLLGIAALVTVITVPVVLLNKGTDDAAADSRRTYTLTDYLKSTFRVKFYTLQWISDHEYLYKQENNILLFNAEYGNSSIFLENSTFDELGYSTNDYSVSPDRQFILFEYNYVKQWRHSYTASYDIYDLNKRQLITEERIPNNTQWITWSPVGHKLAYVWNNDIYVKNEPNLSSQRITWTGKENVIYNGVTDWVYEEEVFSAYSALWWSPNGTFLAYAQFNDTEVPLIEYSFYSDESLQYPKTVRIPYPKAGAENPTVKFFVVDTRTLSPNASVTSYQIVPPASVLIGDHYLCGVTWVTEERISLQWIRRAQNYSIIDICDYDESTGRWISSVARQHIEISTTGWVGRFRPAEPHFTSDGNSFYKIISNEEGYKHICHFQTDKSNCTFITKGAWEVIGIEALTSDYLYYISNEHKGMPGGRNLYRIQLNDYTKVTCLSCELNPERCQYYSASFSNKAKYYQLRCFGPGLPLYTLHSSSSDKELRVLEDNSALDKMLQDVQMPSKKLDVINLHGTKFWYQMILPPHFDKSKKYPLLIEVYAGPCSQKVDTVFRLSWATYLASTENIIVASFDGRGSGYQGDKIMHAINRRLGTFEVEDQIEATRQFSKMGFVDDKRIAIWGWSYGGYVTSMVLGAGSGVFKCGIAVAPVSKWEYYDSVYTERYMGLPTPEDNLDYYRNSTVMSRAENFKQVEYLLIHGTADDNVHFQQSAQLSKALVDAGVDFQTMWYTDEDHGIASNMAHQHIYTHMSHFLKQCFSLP

SMILES: N#CC1CSCN1C(=O)CN(N)C1CCN(Cc2ccccc2)CC1 (stereo not shown) [Compound No. 81, 3-[1-Oxo-2-[1-(1-phenylmethyl-piperidin-4-yl)]-hydrazino]-ethyl-4-cyanothiazolidine trifluoroacetate]
- IC50: 1.63 ± 0.15 µM

SMILES: N#CC1CSCN1C(=O)CN(N)C1CCC(NS(=O)(=O)c2ccc(Cl)cc2)CC1 (stereo not shown) [Compound No. 82]
- IC50: 0.66 ± 0.1 µM

SMILES: N#CC1CSCN1C(=O)CN1CCCCN1 (stereo not shown) [Compound No. 83]
- IC50: 82 ± 18 µM

SMILES: CC(C)NN(CC(=O)N1CSCC1C#N)C1CCC(NS(C)(=O)=O)CC1 (stereo not shown) [Compound No. 84, 3-[1-Oxo-2-(1-(1-methanesulphonylamino-4-cyclohexyl)-2-isopropyl) hydrazino]ethyl-4-cyanothiazolidine trifluoroacetate]
- IC50: 5.78 ± 0.18 µM

SMILES: N#CC1CSCN1C(=O)CN(N)C1CCC(NC(=O)c2ccc(F)cc2)CC1.O=C(O)C(F)(F)F (stereo not shown) [Compound No. 100, 3-[1-oxo-2-[1-(4-fluorobenzoyl)aminocyclohexan-4-yl)]hydrazino]ethyl-4-cyanothiazolidine trifluoroacetate]
- IC50: 0.93 ± 0.015 µM

SMILES: N#CC1CSCN1C(=O)CN(N)C1CCN(CC(=O)N2CCOCC2)CC1 (stereo not shown) [Compound No. 107, 3-[1-oxo-2-[1-(1-(−2-oxo-2(morpholin-4-yl)ethyl)piperidin-4-yl)]hydrazino]ethyl-4-cyanothiazolidine bis-trifluoroacetate]
- IC50: 0.525 ± 0.098 µM

SMILES: N#Cc1cc(CN2CCC(N(N)CC(=O)N3CSCC3C#N)CC2)ccc1-c1ccccc1 (stereo not shown) [Compound No. 109, 3-[1-oxo-2-[1-(1-(2-cyanobiphenyl-4-yl)methyl)piperidine-4-yl]hydrazino]ethyl-4-cyanothiazolidine bis-trifluoroacetate]
- IC50: 1.02 ± 0.14 µM

SMILES: N#CC1CSCN1C(=O)CN(N)C1CCN(C(=O)CN2CCOCC2)CC1 (stereo not shown) [Compound No. 110, 3-[1-oxo-2-[1-(1-(1-oxo-2-(morpholin-4-yl)ethyl)piperidin-4-yl)]hydrazino]ethyl-4-cyanothiazolidine bis-trifluoroacetate]
- IC50: 0.83 ± 0.05 µM

SMILES: N#CC1CSCN1C(=O)CN(N)C1CCC(NCC(=O)Nc2ccc(Cl)cn2)CC1 (stereo not shown) [Compound No. 111, 3-[1-oxo-2-[1-(4-(2-oxo-2-(5-chloropyridin-2-yl)aminoethyl)aminocyclohex-1-yl)]hydrazino]ethyl-4-cyanothiazolidine tris-trifluoroacetate]
- IC50: 0.563 ± 0.077 µM

SMILES: N#Cc1ccc(NC(=O)CNC2CCC(N(N)CC(=O)N3CSCC3C#N)CC2)cc1 (stereo not shown) [Compound No. 112, 3-[1-oxo-2-[1-(4-(2-oxo-2-(4-cyanophenyl)aminoethyl)aminocyclohex-1-yl)]hydrazino]ethyl-4-cyanothiazolidine bis-trifluoroacetate]
- IC50: 1.47 ± 0.07 µM

SMILES: N#CC1CSCN1C(=O)CN(N)C1CCC(NCC(=O)Nc2ccc(Cl)cc2)CC1 (stereo not shown) [Compound No. 113, 3-[1-oxo-2-[1-(4-(2-oxo-2-(4-chlorophenyl)aminoethyl)aminocyclohex-1-yl)]hydrazino]ethyl-4-cyanothiazolidine bis-trifluoroacetate]
- IC50: 1.06 ± 0.3 µM

SMILES: N#CC1CSCN1C(=O)CN(N)C1CCN(CC(=O)NCc2ccccc2F)CC1 (stereo not shown) [compound 122, 3-[1-oxo-2-(1-(1-(2-oxo-2-(2-flurobenzyl)aminoethyl)piperidine-4-yl))hydrazino]ethyl-4-cyanothiazolidine, bis-trifluoroacetate]
- IC50: 0.51 ± 0.05 µM

SMILES: N#CC1CSCN1C(=O)CN(N)C1CCN(CCOc2ccccc2)CC1 (stereo not shown) [compound 123]
- IC50: 0.676 ± 0.07 µM

SMILES: N#CC1CCCN1C(=O)CN(N)C1CCN(CC(=O)Nc2ccc(Cl)cn2)CC1 (stereo not shown) [compound 124, 3-[1-oxo-2-(1-(1-(2-oxo-2-(5-chloropyridin-2-yl)aminoethyl)piperidin-4-yl))hydrazino]ethyl-2-cyanopyrrolidine, tris-trifluoroacetate]
- IC50: 3.7 ± 0.5 µM

SMILES: N#CC1CSCN1C(=O)CN(N)C1CCN(CC(=O)NC2CCCCC2)CC1 (stereo not shown) [compound 125, 3-[1-oxo-2-(1-(1-(2-oxo-2-cyclohexyl)aminoethyl)piperidin-4-yl)hydrazino]ethyl-4-cyanothiazoline, bis-trifluoroacetate]
- IC50: 0.506 ± 0.06 µM

SMILES: CC(C)OCCCNC(=O)CN1CCC(N(N)CC(=O)N2CSCC2C#N)CC1 (stereo not shown) [compound 126]
- IC50: 0.468 ± 0.005 µM

SMILES: N#CC1CSCN1C(=O)CN(N)C1CCN(CC(=O)Nc2ccc(F)c(Cl)c2)CC1 (stereo not shown) [compound 128, 3-[1-oxo-2-(1-(1-(2-oxo-2-(3-chloro-4-fluoro-phenyl)aminoethyl)piperidine-4-yl))hydrazino]ethyl-4-cyanothiazolidine, bis-trifluoroacetate]
- IC50: 0.342 ± 0.035 µM

SMILES: CCOC(=O)Cc1csc(NC(=O)CN2CCC(N(N)CC(=O)N3CSCC3C#N)CC2)n1 (stereo not shown) [compound 129, 3-[1-oxo-2-(1-(1-(2-oxo-2-(4-ethoxycarbonylmethylthiazole-2-yl)aminoethyl)piperidine-4-yl)) hydrazino]ethyl-4-cyanothiazolidine, tris-trifluoroacetate]
- IC50: 0.362 ± 0.06 µM

SMILES: N#CC1CSCN1C(=O)CN(N)C1CCN(CCC(=O)NC2CC2)CC1 (stereo not shown) [compound 132]
- IC50: 1.77 ± 0.167 µM

SMILES: COC(=O)NN(CC(=O)N1CSCC1C#N)C1CCN(CC(=O)Nc2ccc(Cl)cn2)CC1 (stereo not shown) [compound 133, 3-[1-oxo-2-(1-(1-(2-oxo-2-(5-chloropyridin-2-yl)aminoethyl)piperidine-4-yl)-2-methoxycarbonyl)hydrazino]ethyl-4-cyanothiazolidine, trihydrochloride]
- IC50: 40.4 ± 6.4 µM

SMILES: N#CC1CSCN1C(=O)CN(N)C1CCN(CC(=O)Nc2nccs2)CC1 (stereo not shown) [compound 134, 3-[1-oxo-2-(1-(1-(2-oxo-2-(thiazole-2-yl)-aminoethyl)piperidin-4-yl))hydrazino]ethyl-4-cyanothiazolidine, tris-trifluoroacetate]
- IC50: 0.205 ± 0.011 µM

SMILES: COCCNC(=O)CN1CCC(N(N)CC(=O)N2CSCC2C#N)CC1 (stereo not shown) [compound 135, 3-[1-oxo-2-(1-(1-(2-oxo-2-(2-methoxyethyl)aminoethyl)piperidin-4-yl))hydrazino]ethyl-4-cyanothiazolidine, bis-trifluoroacetate]
- IC50: 1.03 ± 0.035 µM

SMILES: N#CC1CSCN1C(=O)CN(N)C1CCN(CC(=O)Nc2ccccn2)CC1 (stereo not shown) [compound 136, 3-[1-oxo-2-(1-(1-(2-oxo-2-(pyridin-2-yl)aminoethyl)piperidine-4-yl))hydrazino]ethyl-4-cyanothiazolidine, tris-trifluoroacetate]
- IC50: 0.21 ± 0.004 µM

SMILES: N#CC1CSCN1C(=O)CN(N)C1CCN(CC(=O)Nc2nc3ccccc3s2)CC1 (stereo not shown) [compound 138]
- IC50: 0.104 ± 0.009 µM

SMILES: Cc1cnc(C(=O)NC2CCC(N(N)CC(=O)N3CSCC3C#N)CC2)cn1 (stereo not shown) [compound 139, 3-[1-oxo-2-(1-(1-(5-methylpyrazine-2-ylcarbonyl)amino-4-cyclohexyl)) hydrazino]ethyl-4-cyanothiazolidine, tris-trifluoroacetate]
- IC50: 0.485 ± 0.01 µM

SMILES: N#CC1CSCN1C(=O)CN(N)C1CCN(CC(=O)Nc2nc3ccccc3s2)CC1 (stereo not shown) [compound 144, 3-[1-oxo-2-(1-(1-(2-oxo-2-(benzothiazole-2-yl)aminoethyl)piperidine-4-yl)) hydrazine]ethyl-4-cyanothiazolidine, trihydrochloride]
- IC50 (trihydrochloride): 0.167 ± 0.007 µM

SMILES: Cc1nc(NC(=O)CN2CCC(N(N)CC(=O)N3CSCC3C#N)CC2)sc1C (stereo not shown) [compound 145, trihydrochloride]
- IC50: 0.715 ± 0.06 µM

SMILES: CC(C)(C)OC(=O)NNCC(=O)N1COCC1C#N (stereo not shown) [compound 147, 3-[-oxo-2-(2-ter-butyloxycarbonyl) hydrazino]ethyl-4-cyanooxazolidine]
- IC50: 150 ± 43 µM
